Source: article PMC4077815, “Modulation of Phosphorylation of Tocopherol and Phosphatidylinositol by hTAP1/SEC14L2-Mediated Lipid Exchange” (PLoS ONE, 2014)

Assays:
[1] = target: T1, recombinant PI3Kγ/p110γ (phosphatidylinositol-3-kinase gamma) (Homo sapiens, UniProt P48736); assay: [γ-32P]-ATP phosphatidylinositol kinase assay, TLC; format: biochemical; details: stimulator; no hTAP1; phosphatidylinositol 100 µM, ATP 20 µM, 4 mM MgCl2, pH 7.4, 37 °C
T1 construct: gene PIK3CG; no regulatory subunit mentioned
T1 sequence (P48736 whole entry): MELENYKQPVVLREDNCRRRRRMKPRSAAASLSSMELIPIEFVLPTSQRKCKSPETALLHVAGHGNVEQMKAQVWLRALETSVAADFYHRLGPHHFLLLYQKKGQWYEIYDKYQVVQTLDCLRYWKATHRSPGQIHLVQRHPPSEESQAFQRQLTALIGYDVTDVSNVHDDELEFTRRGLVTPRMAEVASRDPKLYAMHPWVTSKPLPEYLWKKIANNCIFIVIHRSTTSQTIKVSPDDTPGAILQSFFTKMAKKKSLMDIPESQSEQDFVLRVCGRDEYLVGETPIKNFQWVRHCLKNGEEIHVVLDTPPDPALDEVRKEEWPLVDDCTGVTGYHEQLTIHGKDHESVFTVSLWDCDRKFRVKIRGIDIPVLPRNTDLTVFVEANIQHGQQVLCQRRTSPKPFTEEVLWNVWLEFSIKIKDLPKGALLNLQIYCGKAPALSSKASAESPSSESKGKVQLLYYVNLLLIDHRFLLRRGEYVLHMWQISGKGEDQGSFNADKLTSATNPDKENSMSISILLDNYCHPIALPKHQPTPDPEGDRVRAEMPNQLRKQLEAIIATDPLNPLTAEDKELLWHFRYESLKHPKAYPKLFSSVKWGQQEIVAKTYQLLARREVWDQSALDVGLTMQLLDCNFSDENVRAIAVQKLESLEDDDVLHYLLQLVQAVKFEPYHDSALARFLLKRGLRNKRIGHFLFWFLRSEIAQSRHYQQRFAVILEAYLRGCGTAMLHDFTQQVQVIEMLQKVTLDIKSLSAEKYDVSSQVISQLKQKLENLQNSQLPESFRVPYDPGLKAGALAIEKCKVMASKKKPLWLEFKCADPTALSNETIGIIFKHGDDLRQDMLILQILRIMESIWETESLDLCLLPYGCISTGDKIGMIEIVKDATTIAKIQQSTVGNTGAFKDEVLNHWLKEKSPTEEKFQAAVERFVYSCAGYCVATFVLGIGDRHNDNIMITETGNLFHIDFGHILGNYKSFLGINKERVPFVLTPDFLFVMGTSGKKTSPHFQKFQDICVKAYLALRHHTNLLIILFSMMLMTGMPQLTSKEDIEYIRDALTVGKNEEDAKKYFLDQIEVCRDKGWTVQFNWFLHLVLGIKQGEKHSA

[2] = target: T2, recombinant hTAP1 (human tocopherol associated protein 1, hSEC14L2) (Homo sapiens, UniProt O76054); set-up: gene SEC14L2; details: competitor of phosphatidylinositol; native isoelectric focusing gel
T2 sequence (O76054 whole entry): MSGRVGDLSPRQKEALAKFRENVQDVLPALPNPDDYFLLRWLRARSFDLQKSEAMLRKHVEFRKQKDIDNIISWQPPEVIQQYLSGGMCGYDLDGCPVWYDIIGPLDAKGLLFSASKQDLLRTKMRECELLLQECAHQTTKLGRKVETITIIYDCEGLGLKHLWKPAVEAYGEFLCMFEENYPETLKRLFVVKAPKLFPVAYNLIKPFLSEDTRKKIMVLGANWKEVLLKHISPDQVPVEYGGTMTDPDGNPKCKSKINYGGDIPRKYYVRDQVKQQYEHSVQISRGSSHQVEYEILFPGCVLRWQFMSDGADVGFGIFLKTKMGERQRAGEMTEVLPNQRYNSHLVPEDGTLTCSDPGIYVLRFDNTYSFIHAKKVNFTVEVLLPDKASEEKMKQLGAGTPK

[3] = target: recombinant phosphatidylinositol-3-kinase gamma PI3Kγ/p110γ (UniProt P48736)
Sequence of recombinant phosphatidylinositol-3-kinase gamma PI3Kγ/p110γ (P48736 whole entry): as the sequence (P48736 whole entry) above

[4] = target: T2, recombinant hTAP1 (human tocopherol associated protein 1, hSEC14L2); assay: isoelectric point mobility shift competition with phosphatidylinositol; format: binding; set-up: gene SEC14L2; N-terminal His tag, expressed in and purified from Escherichia coli; details: read-out: 50% displacement of PI

Sequence of recombinant human tocopherol associated protein 1 (O76054 whole entry): as the sequence (O76054 whole entry) above

Molecule | % of control activity at 50 μM [1] | other results
Cc1c(C)c2c(c(C)c1OP(=O)(O)O)CC[C@@](C)(CCC[C@H](C)CCC[C@H](C)CCCC(C)C)O2 [α-tocopheryl phosphate] | αTP stimulated PI3Kγ stronger than αT (Figure 4B) | isoelectric point mobility shift competition with phosphatidylinositol [2]: the competition with αTP was slightly weaker (Figure 3B)
Cc1cc(O)c(C)c2c1O[C@](C)(CCC[C@H](C)CCC[C@H](C)CCCC(C)C)CC2 [RRR-β-tocopherol] | All four tocopherols stimulated PI3Kγ activity with similar efficiency (Figure 4A) | 
Cc1c(O)cc2c(c1C)O[C@](C)(CCC[C@H](C)CCC[C@H](C)CCCC(C)C)CC2 [RRR-γ-tocopherol] | All four tocopherols stimulated PI3Kγ activity with similar efficiency (Figure 4A) | 
Cc1cc(O)cc2c1O[C@](C)(CCC[C@H](C)CCC[C@H](C)CCCC(C)C)CC2 [RRR-δ-tocopherol] | All four tocopherols stimulated PI3Kγ activity with similar efficiency (Figure 4A) | 
recombinant human tocopherol associated protein 1 (from UniProt O76054 1-403) (natural protein) |  | in vitro PI3Kγ activity (phosphorylation of phosphatidylinositol with [γ-32P]-ATP, TLC) in the presence of recombinant hTAP1, relative to the control without hTAP1 [3]: 38%
Cc1c(C)c2c(c(C)c1O)CC[C@@](C)(CCC[C@H](C)CCC[C@H](C)CCCC(C)C)O2 [RRR-α-tocopherol] | All four tocopherols stimulated PI3Kγ activity with similar efficiency (Figure 4A) | IC50 [4]: 50 µM
